In ChEMBL document CHEMBL1201862, “PubChem BioAssay data set” (2004):
The source made the active and inactive calls.

Experiments:
[1] = HEK293 Cytotoxicity Assay Measured in Cell-Based System Using Plate Reader - 7071-01_Inhibitor_Dose_CherryPick_Activity_Set2.; format: functional
[2] = test system: HepG2; experiment: HepG2 Cytotoxicity Assay Measured in Cell-Based System Using Plate Reader - 7071-02_Inhibitor_Dose_CherryPick_Activity.; format: functional; conditions: Homo sapiens
[3] = test system: HEK293; experiment: HEK293T cell cytotoxicity, dose response, cytotoxicity control, ATP luminescence, cherry-pick samples (AID 687005); format: functional, cell-based; conditions: Homo sapiens;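 also: cells exposed to compound for 48 hours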
[4] = HepG2 cell cytotoxicity, dose response, cytotoxicity control, cherry-picks, set 5 (AID 1053118); format: functional, cell-based
[5] = HEK293 cell cytotoxicity, dose response, cytotoxicity control, cherry-picks, set 5 (AID 1053117); format: functional, cell-based
[6] = A549 cell cytotoxicity, dose response, cytotoxicity control, cherry-picks, 26 µM top dose (AID 1053119); format: functional, cell-based
[7] = test system: HeLa; experiment: HeLa cell cytotoxicity, dose response, cytotoxicity control, ATP luminescence, cherry-pick samples (AID 687004); format: functional, cell-based; conditions: Homo sapiens
[8] = test system: Cryptococcus neoformans; experiment: PubChem AID 686997; format: functional, organism-based
[9] = target: Potassium channel subfamily K member 9 (Homo sapiens, UniProt Q9NPC2); experiment: TASK3 (KCNK9) channel inhibitors, thallium flux, SAR follow-up, selectivity assay for TASK1 inhibitor project, cell-based, FluxOR thallium flux, concentration-response (AID 652211); format: functional;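 also: potency is for inhibitors of the channel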
[10] = HEK293T cytotoxicity, dose response, cytotoxicity control for miR-122 modulator project, cell-based, activator set, cherry-pick (AID 720690); format: functional;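 also: HEK293T human cells scored for general mammalian cytotoxicity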
[11] = target: NS3 (Hepatitis C virus, UniProt A3EZJ3); experiment: HCV NS3 helicase inhibitor potency, dose response, biochemical, fluorescence polarization, ChemBridge library (AID 743264)
[12] = target: T1, High affinity choline transporter 1 (Homo sapiens, UniProt Q9GZV3); experiment: CHT choline uptake inhibitors, dose response, cell-based, HEK-293 hCHT, [3H]-choline uptake (AID 652177); format: functional
T1 sequence (Q9GZV3 whole entry): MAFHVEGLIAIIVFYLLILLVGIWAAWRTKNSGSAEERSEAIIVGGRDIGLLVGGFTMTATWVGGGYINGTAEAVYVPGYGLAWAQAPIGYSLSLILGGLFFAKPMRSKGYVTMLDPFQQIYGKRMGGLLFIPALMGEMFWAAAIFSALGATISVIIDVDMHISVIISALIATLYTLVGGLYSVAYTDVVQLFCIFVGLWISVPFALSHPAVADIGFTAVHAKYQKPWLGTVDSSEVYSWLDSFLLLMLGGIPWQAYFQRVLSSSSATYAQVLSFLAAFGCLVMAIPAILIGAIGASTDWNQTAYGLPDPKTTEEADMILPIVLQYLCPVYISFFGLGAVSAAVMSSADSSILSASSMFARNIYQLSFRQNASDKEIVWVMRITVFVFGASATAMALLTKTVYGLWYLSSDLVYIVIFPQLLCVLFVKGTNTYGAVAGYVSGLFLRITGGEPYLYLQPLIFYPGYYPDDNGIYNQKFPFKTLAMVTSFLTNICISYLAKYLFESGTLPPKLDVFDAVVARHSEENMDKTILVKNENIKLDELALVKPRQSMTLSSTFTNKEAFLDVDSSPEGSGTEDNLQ

[13] = target: Nucleotide-binding oligomerization domain-containing protein 2 (Homo sapiens, UniProt Q9HC29); experiment: NOD2 signaling inhibitors, cell-based, luminescence, uHTS, HEK293 (AID 1566); format: functional
[14] = test system: HEK293; experiment: NOD2 signaling inhibitors in MDP-stimulated cells, cell-based, uHTS, luminescence (AID 2001); format: functional; conditions: Homo sapiens
[15] = test system: HEK293; experiment: NOD1 signaling inhibitors, primary screen, cell-based, luminescence, uHTS (AID 1578); format: functional; conditions: Homo sapiens
[16] = test system: HEK293; experiment: cells; format: functional, cell-based; conditions: Homo sapiens
[17] = test system: HEK293; experiment: cells; format: functional, cell-based; conditions: Homo sapiens; remark: listed apart in the source
[18] = target: Albumin (Bos taurus, UniProt P02769); experiment: Counterscreen for inhibitors of T-cell receptor (TCR)-CD3 interaction: Fluorescence-based biochemical high throughput dose response assay to identify inhibitors of T-cell receptor (TCR)-CD3 interaction using a TAMRA-labeled BSA probe.; format: functional
[19] = test system: HEK293; experiment: cells; format: functional, cell-based; conditions: Homo sapiens; remark: listed apart in the source

Chain of Nucleotide-binding oligomerization domain-containing protein 2 (Q9HC29 whole entry, the tested form may be a part): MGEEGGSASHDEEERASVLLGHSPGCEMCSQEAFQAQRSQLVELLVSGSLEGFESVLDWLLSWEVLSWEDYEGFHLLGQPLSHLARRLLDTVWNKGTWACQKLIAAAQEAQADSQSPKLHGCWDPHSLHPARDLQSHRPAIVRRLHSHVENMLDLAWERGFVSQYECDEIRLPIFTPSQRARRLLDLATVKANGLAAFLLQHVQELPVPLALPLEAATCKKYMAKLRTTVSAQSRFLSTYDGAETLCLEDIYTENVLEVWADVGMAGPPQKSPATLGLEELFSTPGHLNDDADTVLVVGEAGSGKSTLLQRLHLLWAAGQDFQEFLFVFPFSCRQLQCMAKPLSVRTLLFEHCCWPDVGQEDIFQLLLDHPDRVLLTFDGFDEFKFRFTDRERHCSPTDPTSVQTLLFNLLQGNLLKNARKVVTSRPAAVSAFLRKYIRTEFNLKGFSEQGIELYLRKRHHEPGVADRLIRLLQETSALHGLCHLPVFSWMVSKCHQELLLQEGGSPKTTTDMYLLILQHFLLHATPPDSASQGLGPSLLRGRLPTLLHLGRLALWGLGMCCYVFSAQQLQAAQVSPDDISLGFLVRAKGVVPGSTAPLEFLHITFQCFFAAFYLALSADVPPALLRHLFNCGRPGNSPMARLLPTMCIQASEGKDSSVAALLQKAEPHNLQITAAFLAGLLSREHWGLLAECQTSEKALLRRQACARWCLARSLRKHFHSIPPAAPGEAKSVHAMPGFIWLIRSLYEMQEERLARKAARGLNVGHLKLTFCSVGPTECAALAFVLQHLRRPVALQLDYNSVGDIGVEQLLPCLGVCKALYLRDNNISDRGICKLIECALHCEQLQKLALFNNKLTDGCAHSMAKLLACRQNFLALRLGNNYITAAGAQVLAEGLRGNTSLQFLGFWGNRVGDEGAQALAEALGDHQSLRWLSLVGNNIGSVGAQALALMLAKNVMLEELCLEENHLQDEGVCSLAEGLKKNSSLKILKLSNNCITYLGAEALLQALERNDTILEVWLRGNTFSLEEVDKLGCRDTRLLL
Chain of Potassium channel subfamily K member 9 (Q9NPC2 whole entry): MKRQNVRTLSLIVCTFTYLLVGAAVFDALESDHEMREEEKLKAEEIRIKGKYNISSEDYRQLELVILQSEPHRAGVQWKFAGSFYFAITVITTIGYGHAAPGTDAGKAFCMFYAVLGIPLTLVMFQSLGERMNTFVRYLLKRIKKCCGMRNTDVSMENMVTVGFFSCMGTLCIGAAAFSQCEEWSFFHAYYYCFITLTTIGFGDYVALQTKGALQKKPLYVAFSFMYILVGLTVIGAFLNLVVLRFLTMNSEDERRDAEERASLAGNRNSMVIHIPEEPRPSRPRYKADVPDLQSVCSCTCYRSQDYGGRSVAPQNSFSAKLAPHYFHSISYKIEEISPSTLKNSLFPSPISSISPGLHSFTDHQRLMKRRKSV
Chain of NS3 (A3EZJ3 whole entry): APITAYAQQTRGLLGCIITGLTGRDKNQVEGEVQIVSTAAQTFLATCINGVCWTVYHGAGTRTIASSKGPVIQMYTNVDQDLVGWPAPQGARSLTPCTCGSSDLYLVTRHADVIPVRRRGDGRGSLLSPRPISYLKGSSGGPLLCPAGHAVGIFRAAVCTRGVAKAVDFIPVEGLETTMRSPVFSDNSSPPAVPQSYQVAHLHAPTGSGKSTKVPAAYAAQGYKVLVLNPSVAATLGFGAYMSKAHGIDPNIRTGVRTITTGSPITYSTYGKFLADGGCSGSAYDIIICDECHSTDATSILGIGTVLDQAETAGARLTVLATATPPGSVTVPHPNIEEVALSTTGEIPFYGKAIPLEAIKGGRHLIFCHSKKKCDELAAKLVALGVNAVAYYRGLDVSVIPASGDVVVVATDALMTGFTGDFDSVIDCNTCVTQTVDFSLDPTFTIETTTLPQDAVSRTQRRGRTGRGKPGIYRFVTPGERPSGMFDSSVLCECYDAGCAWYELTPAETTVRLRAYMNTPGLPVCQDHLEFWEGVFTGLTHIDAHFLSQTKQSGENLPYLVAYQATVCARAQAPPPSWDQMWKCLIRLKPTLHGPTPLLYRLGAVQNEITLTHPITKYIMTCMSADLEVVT
Chain of Albumin (P02769 whole entry): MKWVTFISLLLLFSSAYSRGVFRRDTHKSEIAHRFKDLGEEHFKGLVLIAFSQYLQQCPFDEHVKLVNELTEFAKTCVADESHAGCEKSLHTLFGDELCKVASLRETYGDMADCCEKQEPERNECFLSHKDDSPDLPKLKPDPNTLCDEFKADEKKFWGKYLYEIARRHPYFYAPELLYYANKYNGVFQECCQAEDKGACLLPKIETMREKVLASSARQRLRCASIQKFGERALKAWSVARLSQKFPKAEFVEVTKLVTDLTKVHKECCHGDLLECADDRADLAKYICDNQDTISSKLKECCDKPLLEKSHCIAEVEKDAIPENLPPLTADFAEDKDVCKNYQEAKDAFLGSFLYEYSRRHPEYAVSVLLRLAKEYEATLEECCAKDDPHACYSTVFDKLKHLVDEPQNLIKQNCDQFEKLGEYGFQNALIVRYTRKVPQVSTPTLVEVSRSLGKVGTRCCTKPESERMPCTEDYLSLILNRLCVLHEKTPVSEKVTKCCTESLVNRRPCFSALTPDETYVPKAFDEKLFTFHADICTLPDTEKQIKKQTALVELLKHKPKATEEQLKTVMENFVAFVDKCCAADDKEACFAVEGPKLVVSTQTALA

Structure (SMILES): O=C(CC1CC1)N1[C@@H]2CN(S(=O)(=O)c3ccccc3)c3ccccc3[C@@H]2[C@@H]1CO
- AC50 [1]: 28 µM (active)
- AC50 [2]: 19.8 µM (active)
- AC50 [3]: 28 µM (active)

Structure (SMILES): CO[C@H]1CN(C)C(=O)c2ccc(NC(=O)c3ccc(-c4ccccc4)cc3)cc2OC[C@H](C)NC[C@H]1C
- AC50 [4]: 32.2 µM (active)
- AC50 [5]: > 52 µM (inactive)
- AC50 [6]: 33.9 µM (active)

Structure (SMILES): COC(=O)C1=C(C)N(Cc2ccc(Cl)cc2)C(=S)NC1c1cccc(Cl)c1 (stereo unspecified)
- AC50 [7]: > 47 µM (inactive)
- AC50 [1]: 23.4 µM (active)
- AC50 [8]: > 70 µM (inactive)
- AC50 [3]: 23.4 µM (active)

Structure (SMILES): O=C(Nc1cccc(NC(=O)C2CCCCC2)c1)c1ccccc1
- IC50 [9]: 8 µM (active)

Structure (SMILES): COc1cccc(S(=O)(=O)N(C)C[C@@H]2Oc3cc(C4=CCCCC4)ccc3S(=O)(=O)N([C@H](C)CO)C[C@@H]2C)c1
- AC50 [10]: 25.1 µM (active)

Structure (SMILES): O=C1NC(=S)N(c2ccccc2)C(=O)/C1=C/c1ccc(-c2ccc(C(=O)O)c(Cl)c2)o1
- IC50 [11]: 96.9 µM (active)

Structure (SMILES): COc1ccc(C(=O)NCc2cc(C(C)C)no2)cc1OCCN1CCOCC1
- IC50 [12]: 6.12 µM (active)

Structure (SMILES): O=C(CNC(=O)c1cccc(Br)c1)N/N=C/c1cc(Br)cc(Br)c1O
- EC50 [13]: > 20 µM (inactive)
- IC50 [14]: > 20 µM (inactive)
- EC50 [15]: > 20 µM (inactive)
- IC50 [16]: > 20 µM (inactive)
- IC50 [17]: > 20 µM (inactive)
- IC50 [18]: > 94.1 µM (inactive)
- IC50 [19]: 19.4 µM (active)
